Converted amounts (≈) assume the structure as drawn.
Assays:
Type in all cases: cell-based
[1] = system: Staphylococcus aureus (H-Heatley) NRRL B-314; test: in vitro turbidometric assay (Autoturb Microbiological Assay System) against Staphylococcus aureus; settings: nutrient broth pH 7, approximately 4 hours at 37° C., A-40104 factor A as standard
Protocol: The compounds are conveniently tested against a typical gram-positive organism, Staphylococcus aureus, using a turbidometric assay on a semi-automated system (Autoturb Microbiological Assay System, Elanco) described by N. R. Kuzel and F. W. Kavanagh in J. Pharmaceut. Sci, 60 (5), 764 and 767 (1971). In testing these compounds, the following parameters were used: Staphylococcus aureus (H-Heatley) NRRL B-314 in a nutrient broth medium (pH 7), incubated for approximately 4 hours at 37° C. Test samples and A-40104 factor A, which is used as a standard, were dissolved in water. The standard was presented to the Autoturb carrousel at concentrations of 1.25, 2.50, 3.75, 5.00 and 6.25 mcg/ml. Test compounds were diluted to contain approximately 2.5 to 5.0 mcg of activity per ml, as presented to the carrousel. The units of activity of some of the typical compounds of this invention (R^2 =H in group tested) in this in vitro assay are summarized in Table I

[2] = system: Fusobacterium necrophorum; test: standard agar-dilution test, anaerobic bacteria; settings: 24-hour incubation, read-out: MIC
Bacteroides fragilis 111 = test: standard agar-dilution test, anaerobic bacteria; settings: Bacteroides fragilis 111; 24-hour incubation; read-out: MIC
Fusobacterium symbiosum = test: standard agar-dilution test, anaerobic bacteria; settings: Fusobacterium, 24 h
[3] = system: Peptostreptococcus intermedius; test: standard agar-dilution test, anaerobic bacteria; settings: Peptostreptococcus intermedius; 24-hour incubation; read-out: MIC
Bacteroides corrodens = test: standard agar-dilution test, anaerobic bacteria; settings: Eikenella corrodens; Bacteroides corrodens; 24-hour incubation; read-out: MIC
Clostridium septicum = test: standard agar-dilution test, anaerobic bacteria; settings: 24-hour incubation
Protocol: (§1) Table IV summarizes the activity of typical compounds of this invention, as determined by the standard agar-dilution test.
(§2) *Endpoint read after 24-hour incubation

[4] = system: Bacteroides thetaiotaomicron; test: standard agar-dilution test, anaerobic bacteria; settings: 24-hour incubation
Protocol: as §1, §2

Bacteroides vulgatis = test: standard agar-dilution test, anaerobic bacteria; settings: Bacteroides vulgatis; 24-hour incubation; read-out: MIC
[5] = system: Bacteroides melaninogenicus 2736; test: standard agar-dilution test, anaerobic bacteria; settings: Bacteroides melaninogenicus 2736; 24-hour incubation; read-out: MIC
[6] = system: Peptostreptococcus anaerobius; test: standard agar-dilution test, anaerobic bacteria; settings: 24-hour incubation
Clostridium perfringens = test: microbe, parasite or virus in culture; settings: 24 h
[7] = system: Bacteroides fragilis 1877; test: standard agar-dilution test, anaerobic bacteria; settings: Bacteroides fragilis 1877; 24-hour incubation; read-out: MIC
Spiroplasma citri = test: in vitro inhibition of Spiroplasma citri measured by a color reaction; design: key to Activity (color reaction): Red (R) includes complete inhibition; red-orange (RO) indicates partial inhibition; yellow (Y) indicates no inhibition
Protocol: In another important aspect, the compounds of this invention are active against Spiroplasmas. Spiroplasma citri is the causative agent of citrus-stubborn disease; another Spiroplasma, corn-stunt Spiroplasma, affects the growth of corn. Table VII summarizes the in vitro activity of representative compounds of the present invention (R^2 =H in this group) against Spiroplasma citri. In this test, inhibition of S. citri is measured by a color reaction. Red (R) includes complete inhibition; red-orange (RO) indicates partial inhibition; and yellow (Y) indicates no inhibition.

[8] = system: Bacteroides melaninogenicus 1856/28; test: standard agar-dilution test, anaerobic bacteria; settings: Prevotella intermedia; Bacteroides melaninogenicus 1856/28; 24-hour incubation; read-out: MIC
[9] = system: Peptococcus asaccharolyticus; test: standard agar-dilution test, anaerobic bacteria; settings: Peptoniphilus asaccharolyticus, 24-hour incubation
Actinomyces israelii = test: standard agar-dilution test, anaerobic bacteria; settings: 24-hour incubation
Peptococcus prevoti = test: standard agar-dilution test, anaerobic bacteria; settings: Peptococcus prevoti; 24-hour incubation; read-out: MIC
Eubacterium aerofaciens = test: standard agar-dilution test, anaerobic bacteria; settings: Collinsella aerofaciens, 24 h
[10] = system: Bacteroides fragilis 1936B; test: standard agar-dilution test, anaerobic bacteria; settings: Bacteroides fragilis 1936B; 24-hour incubation; read-out: MIC

CC[C@]1(C)C[C@@H](OC(=O)CS[C@@H]2OC[C@@H](OC(C)=O)[C@@H](OC(C)=O)[C@H]2OC(C)=O)[C@]2(C)[C@H](C)CC[C@]3(CCC(=O)[C@H]32)[C@@H](C)[C@@H]1O
Units of Activity [1]: 480 to 500 µg/mg

C=C[C@]1(C)C[C@@H](OC(=O)CO[C@@H]2OC[C@@H](O)[C@H](O)[C@H]2O)[C@]2(C)[C@H](C)CC[C@]3(CCC(=O)[C@H]32)[C@@H](C)[C@@H]1O [A-40104 factor A, reference compound]
Units of Activity [1]: 446 to 452 µg/mg

CC[C@]1(C)C[C@@H](OC(=O)CS[C@@H]2O[C@H](COC(C)=O)[C@@H](OC(C)=O)[C@H](OC(C)=O)[C@H]2OC(C)=O)[C@]2(C)[C@H](C)CC[C@]3(CCC(=O)[C@H]32)[C@@H](C)[C@@H]1O [Compound 4, 14-deoxy-14-[(2,3,4,6-tetra-O-acetyl-β-D-glucopyranosyl)thioacetoxy]-19,20-dihydromutilin]
Units of Activity [1]: 203 to 220 µg/mg
MIC [2]: ≤ 0.5 µg/mL
MIC (Bacteroides fragilis 111): 32 µg/mL (≈ 44 µM)
MIC (Fusobacterium symbiosum): 128 µg/mL (≈ 176 µM)
MIC [3]: 2 µg/mL (≈ 2.75 µM)
MIC (Bacteroides corrodens): 32 µg/mL (≈ 44 µM)
MIC (Clostridium septicum): 4 µg/mL (≈ 5.5 µM)
MIC [4]: 64 µg/mL (≈ 88 µM)
MIC (Bacteroides vulgatis): 32 µg/mL (≈ 44 µM)
MIC [5]: 4 µg/mL (≈ 5.5 µM)
MIC [6]: 1 µg/mL (≈ 1.38 µM)
MIC (Clostridium perfringens): > 128 µg/mL
MIC [7]: 32 µg/mL (≈ 44 µM)
Activity (color reaction) (Spiroplasma citri; 0.01 ppm): Y
Activity (color reaction) (Spiroplasma citri; 0.05 ppm): R
Activity (color reaction) (Spiroplasma citri; 0.1 ppm): R
Activity (color reaction) (Spiroplasma citri; 1.0 ppm): R
MIC [8]: 8 µg/mL (≈ 11 µM)
MIC [9]: ≤ 0.5 µg/mL
MIC (Actinomyces israelii): ≤ 0.5 µg/mL
MIC (Peptococcus prevoti): 8 µg/mL (≈ 11 µM)
MIC (Eubacterium aerofaciens): > 128 µg/mL
MIC [10]: 64 µg/mL (≈ 88 µM)

CC[C@]1(C)C[C@@H](OC(=O)CO[C@H]2O[C@H](CO)[C@@H](O)[C@H](O)[C@H]2O)[C@]2(C)[C@H](C)CC[C@]3(CCC(=O)[C@H]32)[C@@H](C)[C@@H]1O [Example 2, 14-deoxy-14-[(α-D-glucopyranosyl)oxyacetoxy]-19,20-dihydromutilin]
Units of Activity [1]: < 100 µg/mg

C=C[C@]1(C)C[C@@H](OC(=O)CS[C@@H]2OC[C@@H](OC(C)=O)[C@@H](OC(C)=O)[C@@H]2OC(C)=O)[C@]2(C)[C@H](C)CC[C@]3(CCC(=O)[C@H]32)[C@@H](C)[C@@H]1O [Example 20, 14-Deoxy-14-[(2,3,4-tri-O-acetyl-β-D-arabinopyranosyl)thioacetoxy]mutilin]
Units of Activity [1]: 430 µg/mg

CC[C@]1(C)C[C@@H](OC(=O)CS[C@@H]2OC[C@@H](OC(C)=O)[C@@H](OC(C)=O)[C@@H]2OC(C)=O)[C@]2(C)[C@H](C)CC[C@]3(CCC(=O)[C@H]32)[C@@H](C)[C@@H]1O [Example 21, 14-Deoxy-14-[(2,3,4-tri-O-acetyl-β-D-arabinopyranosyl)thioacetoxy]-19,20-dihydromutilin]
Units of Activity [1]: 380 µg/mg

C=C[C@]1(C)C[C@@H](OC(=O)CS[C@@H]2OC[C@@H](O)[C@@H](O)[C@@H]2O)[C@]2(C)[C@H](C)CC[C@]3(CCC(=O)[C@H]32)[C@@H](C)[C@@H]1O [Example 22, 14-Deoxy-14-[(β-D-arabinopyranosyl)thioacetoxyl]mutilin]
Units of Activity [1]: 380 µg/mg

CC[C@]1(C)C[C@@H](OC(=O)CS[C@@H]2OC[C@@H](O)[C@@H](O)[C@@H]2O)[C@]2(C)[C@H](C)CC[C@]3(CCC(=O)[C@H]32)[C@@H](C)[C@@H]1O [Example 23, 14-deoxy-14-[(β-D-arabinopyranosyl)thioacetoxy]-19,20-dihydromutilin]
Units of Activity [1]: 420 µg/mg

C=C[C@]1(C)C[C@@H](OC(=O)CS[C@H]2OC[C@@H](OC(C)=O)[C@@H](OC(C)=O)[C@H]2OC(C)=O)[C@]2(C)[C@H](C)CC[C@]3(CCC(=O)[C@H]32)[C@@H](C)[C@@H]1O [Example 36 α-anomer, 14-deoxy-14-[(2,3,4-tri-O-acetyl-α-D-ribopyranosyl)thioacetoxy]mutilin]
Units of Activity [1]: 50 µg/mg

C=C[C@]1(C)C[C@@H](OC(=O)CS[C@H]2OC[C@@H](O)[C@@H](O)[C@H]2O)[C@]2(C)[C@H](C)CC[C@]3(CCC(=O)[C@H]32)[C@@H](C)[C@@H]1O [Example 37, 14-Deoxy-14-[(α-D-ribopyranosyl)thioacetoxy]-mutilin]
Units of Activity [1]: 350 µg/mg

C=C[C@]1(C)C[C@@H](OC(=O)CS[C@@H]2OC[C@@H](O)[C@@H](O)[C@H]2O)[C@]2(C)[C@H](C)CC[C@]3(CCC(=O)[C@H]32)[C@@H](C)[C@@H]1O [Example 38, 14-Deoxy-14-[(β-D-ribopyranosyl)thioacetoxy]-mutilin]
Units of Activity [1]: 1070 µg/mg

CC[C@]1(C)C[C@@H](OC(=O)CS[C@H]2OC[C@@H](O)[C@@H](O)[C@H]2O)[C@]2(C)[C@H](C)CC[C@]3(CCC(=O)[C@H]32)[C@@H](C)[C@@H]1O [Example 39, 14-Deoxy-14-[(α-D-ribopyranosyl)thioacetoxy]-19,20-dihydromutilin]
Units of Activity [1]: 430 to 433 µg/mg

CC[C@]1(C)C[C@@H](OC(=O)CS[C@@H]2OC[C@@H](O)[C@@H](O)[C@H]2O)[C@]2(C)[C@H](C)CC[C@]3(CCC(=O)[C@H]32)[C@@H](C)[C@@H]1O [Example 40, 14-Deoxy-14-[(β-D-ribopyranosyl)thioacetoxy]-19,20-dihydromutilin]
Units of Activity [1]: 1500 µg/mg

C=C[C@]1(C)C[C@@H](OC(=O)CS[C@H]2O[C@H](COC(C)=O)[C@@H](OC(C)=O)[C@H]2OC(C)=O)[C@]2(C)[C@H](C)CC[C@]3(CCC(=O)[C@H]32)[C@@H](C)[C@@H]1O [Example 41 α-anomer, 14-deoxy-14-[(2,3,5-tri-O-acetyl-α-D-ribofuranosyl)thioacetoxy]mutilin]
Units of Activity [1]: about 200 mcg/mg

C=C[C@]1(C)C[C@@H](OC(=O)CS[C@@H]2O[C@H](COC(C)=O)[C@@H](OC(C)=O)[C@H]2OC(C)=O)[C@]2(C)[C@H](C)CC[C@]3(CCC(=O)[C@H]32)[C@@H](C)[C@@H]1O [Example 41 β-anomer, 14-deoxy-14-[(2,3,5-tri-O-acetyl-β-D-ribofuranosyl)thioacetoxy]mutilin]
Units of Activity [1]: about 450 mcg/mg

C=C[C@]1(C)C[C@@H](OC(=O)CS[C@@H]2O[C@H](COC(C)=O)[C@@H](O[C@H]3O[C@H](COC(C)=O)[C@@H](OC(C)=O)[C@H](OC(C)=O)[C@H]3OC(C)=O)[C@H](OC(C)=O)[C@H]2OC(C)=O)[C@]2(C)[C@H](C)CC[C@]3(CCC(=O)[C@H]32)[C@@H](C)[C@@H]1O [Example 52, 14-Deoxy-14-[(4-O-(2,3,4,6-tetra-O-acetyl-α-D-glucopyranosyl)-2,3,6-tri-O-acetyl-β-D-glucopyranosyl)thioacetoxy]mutilin]
Units of Activity [1]: 40 µg/mg

CC[C@]1(C)C[C@@H](OC(=O)CS[C@@H]2O[C@H](COC(C)=O)[C@@H](O[C@H]3O[C@H](COC(C)=O)[C@@H](OC(C)=O)[C@H](OC(C)=O)[C@H]3OC(C)=O)[C@H](OC(C)=O)[C@H]2OC(C)=O)[C@]2(C)[C@H](C)CC[C@]3(CCC(=O)[C@H]32)[C@@H](C)[C@@H]1O [Example 53]
Units of Activity [1]: 28 µg/mg

Source: US4130709A, “Pleuromutilin glycoside derivatives” (Eli Lilly and Company, priority 1977, dated 1978)
